Entries after “also recorded” stand apart in the source; their conditions may differ.
How the values were obtained:
Lin^− bone marrow cells [1] = test: erythropoietic growth of Lin− bone marrow quantified by flow cytometry (Ter-119/CD71) and total cell counts; assay type: cell-based, mouse; conditions: for Avg Growth +/− SD: SCF 0, 72 h
Description: FIG. 13 is a bar graph of data obtained from experiments performed to determined the effect of Epo on the erythropoietic growth of Lin− bone marrow cells. Lin^− bone marrow cells were cultured for 1 day in media containing serum along with Epo at variable concentrations. Epo was removed from the culture media at the end of 1 day, and culture was continued for 2 more days in media with serum. At the end of the third day, the resulting populations were removed from culture and erythropoietic growth was quantified as the product of total cell counts and flow cytometric region fractions. Specifically, erythroid-specific growth at two late stages was calculated for each culture by taking the product of the total cell count and the fraction of the population found to have the indicated surface phenotype (determined by flow cytometry). These erythroid growth values were then normalized to the number of Lin^− cells seeded.
Studies were conducted by stimulating Lin^− mouse BM with specifically defined media formulations for 24 hours before replacing the medium to a minimal erythroid-differentiation medium (EDM) and culturing for an additional 2-3 days. This EDM contains 20% FBS, 2 mM L-glutamine, and 0.1 mM β-mercaptoethanol in IMDM, whereas the “Day 1” medium consists of IMDM with 15% FBS, 2 mM L-glutamine, 0.1 mM β-mercaptoethanol, 1% BSA, 200 μg holo-transferrin, 10 μg/mL insulin as well as further supplements (some specific media formulations listed in Table I). Upon harvest, the number of late-stage erythroid cells and enucleated erythrocytes produced over the culture period was analyzed. […] Although the most relevant endpoint for these cultures is PCEs-produced per primary BM cell, the number of R4 and R5 cells in the post-culture population, as measured by flow ctyometry, provided a reasonable metric of PCE content for early screening studies. More rigorous quantification, via histological analysis, was then employed in a more detailed analysis to generate FIGS. 11, 12, 14 and 16.
As shown above, short-term erythropoietic culture can be used to detect genotoxic exposure. Quantitative studies on the erythropoietic growth of Lin^− BM after stimulus with physiologic erythropoietic factors were used to further improve the culture methodology and thus increase the potential throughput of the in vitro erythroid MN assay described here. Initially, flow cytometry was used to define late-erythroid cells by subdividing the Ter-119^+ population based on CD71 expression (regions shown in FIG. 4) to estimate the fraction of a culture that acquired late-erythroid surface markers. The products of flow cytometric region statistics and total cell counts were calculated and then normalized to input cell numbers to quantify erythropoietic growth in a culture.
Table II. in vitro erythroid growth is modulated by physiologic erythropoietic stimuli. The culture conditions listed on the left-hand side of the table specify the environment in which a growth measurement was made. All soluble growth factors used in these experiments were removed from culture after 1 day. An X in this first section of the table indicates the variable parameter found to have a significant erythropoietic growth-effect. The measured effect of that parameter on erythropoietic growth is then given on the right-hand side of the table. In this right-hand section of the table, the first item listed is the defining surface phenotype of the erythropoietic population. […] Finally, the level of significance (P value) is given. Note that the first 4 entries to this table were taken from FIG. 13; other entries were obtained from similar figures. P values were determined by the two-tailed t test, except for the 3 italicized P values, which were determined using the one-tailed t test.

Lin^− bone marrow cells [2] = test: PCE growth of Lin− bone marrow by acridine orange histology, fractional-factorial design with regression; assay type: cell-based, mouse
Description: (FIG. 14A) Lin^− bone marrow cells were cultured for 1 day in media containing serum and various combinations of soluble growth factors as listed on the abscissa; these specific 6-factor combinations constitute an orthogonal fractional-factorial design (also represented in Table 1). After 1 day, all soluble erythropoietic growth factors were removed and the cells were cultured for either 2 or 3 additional days in medium with serum. At harvest, the cells were removed from culture and late erythropoietic growth was quantified. For each culture, PCE numbers were calculated by taking the product of the total cell count and the PCE fraction of the population as determined by differential cell counting after staining with acridine orange (>2000 cells scored per culture). Growth calculations were normalized to input cell numbers and are presented as the mean of 3 independent cultures +/− the standard deviation. (FIG. 14B) Culture methods that yielded similar populations at harvest were grouped into subsets (α, β, γ, and δ); growth characteristics for these subsets were quantified and representative micrographs were acquired. […] Cultures exposed to SCF but not Epo (subset γ) expanded approximately 2.5-fold in total cell numbers, but again contained less than 3% PCEs. Cultures exposed to both Epo and SCF (subset β) expanded approximately 13-fold in total cell numbers and yielded populations in which approximately 31% of all cells are PCEs. Finally, cultures exposed to both Epo and Dex but not SCF (subset δ) expanded approximately 4-fold while producing populations in which approximately 51% of all cells are PCEs. Growth calculations are presented as the mean of all cultures in a subset ± the standard deviation. Scale bars: 20 μm.
Table I is an experimental design chart that provides the specific details of the experimental conditions that were examined to generate FIGS. 11, 12, 14 and 16. Specifically, this experimental design is a two-level, minimum-aberration, fractional-factorial design of resolution IV (a 2IV^6-2 minimum-aberration design). The full-factorial design was not performed because an experiment of this size (2^6 cultures for each biological singlet) was logisitically infeasible. This experiment was designed in order to estimate all the main (primary) interactions between the culture response (PCEs produced) and the individual parameters included in the design. In addition, many of the secondary interactions (between the culture response and various parameter-pairs) were estimable by conducting this design (see FIGS. 12 and 16), although some of these secondary interactions were confounded with other secondary interactions. Each condition listed in the design table was tested in biological triplicate, and each triplicate set was cultured under three different atmospheric conditions, to yield a total of nine culture wells per listed condition.
Furthermore, some variability between various Lin^− BM isolations was observed over the course of preliminary flow cytometric studies. Therefore, a definitive study was conducted that used aliquots of a large, well-mixed Lin^− population that was isolated from the combined BM of 15 mice. In this study, flow cytometry was replaced by histological analysis to provide more rigorous quantification of a population's PCE content. This study was designed to estimate the relative stimulatory effect of various, previously-identified erythroid growth factors on culture performance. Specifically a minimum-aberration, fractional-factorial experimental design (a 2IV^6-2 minimum-aberration design) was conducted to estimate all the main (primary) interactions between the culture response, which was PCEs produced (as assessed by histology), and the individual parameters included in the design (see Table I, and FIGS. 11, 12, 14 and 16). […]

[3] = complete multi-linear regression model (n3=27), parameters scaled 0 to 1
[4] = reduced multi-linear regression model (n3=17), FIG. 16

C[C@@H]1C[C@H]2[C@@H]3CCC4=CC(=O)C=C[C@]4(C)[C@@]3(F)[C@@H](O)C[C@]2(C)[C@@]1(O)C(=O)CO [Dex, Dexamethasone, reference compound]
Avg Growth +/− SD (Lin^− bone marrow cells [1]; [Dex] = 1 μM, Ter-119+ CD71+, Epo 5 U/mL, CO2 0.5%, 20% O2, Fn 2, Ins 10, IGF-I 10 ng/mL): 0.278 +/− 0.102 per Lin^− cell seeded | Avg Growth +/− SD (Lin^− bone marrow cells [1]; [Dex] = 1 μM, Ter-119+ CD71−, Epo 5 U/mL, CO2 0.5%, 20% O2, Fn 2, Ins 10, IGF-I 0): 0.016 +/− 0.006 per Lin^− cell seeded | Avg Growth +/− SD (Lin^− bone marrow cells [1]; [Dex] = 10 μM, Ter-119+ CD71−, Epo 5 U/mL, CO2 0.5%, 20% O2, Fn 2, Ins 10, IGF-I 0): 0.028 +/− 0.016 per Lin^− cell seeded | Scaled Estimate (model parameter, PCE growth) (Lin^− bone marrow cells [2]; [3]): −0.298 | Scaled Estimate (model parameter, PCE growth) (Lin^− bone marrow cells [2]; [4]): −0.333

Epo: erythropoietin (Amgen), essential component of the erythropoietic media formulation
Avg Growth +/− SD (Lin^− bone marrow cells [1]; [Epo] = 2 U/mL (low-growth comparison), Ter-119+ CD71−, 5% CO2, 20% O2, Fn 2, Dex 0, Ins 10, IGF-I 0): 0.141 +/− 0.019 per Lin^− cell seeded | Avg Growth +/− SD (Lin^− bone marrow cells [1]; [Epo] = 5 U/mL, Ter-119+ CD71−, 5% CO2, 20% O2, Fn 2 μg/sq cm, Dex 0, Ins 10 μg/mL, IGF-I 0): 0.307 +/− 0.022 per Lin^− cell seeded | Avg Growth +/− SD (Lin^− bone marrow cells [1]; [Epo] = 10 U/mL, Ter-119+ CD71−, 5% CO2, 20% O2, Fn 2, Dex 0, Ins 10, IGF-I 0): 0.380 +/− 0.050 per Lin^− cell seeded | Avg Growth +/− SD (Lin^− bone marrow cells [1]; [Epo] = 50 U/mL, Ter-119+ CD71−, 5% CO2, 20% O2, Fn 2, Dex 0, Ins 10, IGF-I 0): 0.312 +/− 0.030 per Lin^− cell seeded | Avg Growth +/− SD (Lin^− bone marrow cells [1]; [Epo] = 500 U/mL, Ter-119+ CD71−, 5% CO2, 20% O2, Fn 2, Dex 0, Ins 10, IGF-I 0): 0.314 +/− 0.019 per Lin^− cell seeded | level at which the erythropoietic stimulatory effect reached a maximum (Lin^− bone marrow cells [1]; cultured Lin− BM, Epo present for first day): approximately 10 U/mL | relative size of growth effects by multi-linear regression, in words (Lin^− bone marrow cells [2]; FIG. 16): largest eyrthropoietic growth effect | Scaled Estimate (model parameter, PCE growth) (Lin^− bone marrow cells [2]; [3]): 3.136 | effect on PCE production / erythropoietic growth, statistical analysis of FIG. 12 (Lin^− bone marrow cells [2]; primary and secondary effects, untreated cultures): major factors influencing erythropoietic growth; also recorded: the largest, and most statistically-significant, effect | Scaled Estimate (model parameter, PCE growth) (Lin^− bone marrow cells [2]; [4]): 3.130

IGF-I: Insulin-like Growth Factor I (R&D systems)
effect on erythropoietic growth (erythropoietic flow cytometry), in words (Lin^− bone marrow cells [1]; preliminary flow cytometric studies, Lin− BM from C57BL/6J mice): had an effect on erythroid cell numbers | Scaled Estimate (model parameter, PCE growth) (Lin^− bone marrow cells [2]; [3]): −0.231 | Scaled Estimate (model parameter, PCE growth) (Lin^− bone marrow cells [2]; [4]): −0.200

Ins: recombinant human insulin (Sigma)
Avg Growth +/− SD (Lin^− bone marrow cells [1]; [Ins] = 10 μg/mL, Ter-119+ CD71+, Epo 5 U/mL, 5% CO2, 20% O2, Fn 0): 1.743 +/− 0.107 per Lin^− cell seeded | Avg Growth +/− SD (Lin^− bone marrow cells [1]; [Ins] = 10 μg/mL, Ter-119+ CD71−, Epo 5 U/mL, 5% CO2, 20% O2, Fn 0): 0.382 +/− 0.008 per Lin^− cell seeded | Avg Growth +/− SD (Lin^− bone marrow cells [1]; [Ins] = 100 μg/mL, Ter-119+ CD71+, Epo 5 U/mL, 5% CO2, 20% O2, Fn 0): 2.096 +/− 0.121 per Lin^− cell seeded | Avg Growth +/− SD (Lin^− bone marrow cells [1]; [Ins] = 100 μg/mL, Ter-119+ CD71−, Epo 5 U/mL, 5% CO2, 20% O2, Fn 0): 0.427 +/− 0.015 per Lin^− cell seeded

Reference: patent publication US20070087364A1, “In vitro erythroid micronucleus assay for genotoxicity” (Massachusetts Institute of Technology, priority 2005, published 2007)
